Here are results for one compound from publication PMC8067632, “Assessment and Development of the Antifungal Agent Caspofungin for Aerosolized Pulmonary Delivery” (Pharmaceutics, 2021).

A short description of series [1]: Stability of lyophilized formulations by HPLC. Type of series: physicochemical. Conditions: caspofungin API lyophilized alone from water, 0 months; HPLC UV 220 nm.
Method: Lyophilization was accomplished using a VirTis benchtop manifold lyophilizer (SP Scientific, Stone Ridge, NY, USA) under vacuum of <50 mTorr. […] High-performance liquid chromatography (HPLC) analysis was carried out on a Waters 2695 separations module (Waters Corporation, Milford, MA, USA) equipped with an autosampler and a Waters 996 photodiode array detector. For impurity determinations a Waters Symmetry (Waters Corporation, Milford, MA, USA) C18 3.5 µm, 4.6 × 75 mm column was used. For weight-weight assay a Waters Symmetry C18 Column (Waters Corporation, Milford, MA, USA), 3.5 µm, 4.6 mm × 100 mm column was employed. […] Reconstituted stability analyses were analyzed using the above HPLC methods.
The stability of the lyophilized formulations was studied under two sets of temperature conditions, 2–5 °C and 25 °C. […] At the specified time points the test articles were reconstituted with normal saline to yield a 10 mg/mL solution for HPLC assay. For comparison, we also lyophilized caspofungin API alone.
HPLC analysis was carried out on a Waters 2695 separations module equipped with
an autosampler and a Waters 996 photodiode array detector. The HPLC method is de-
Column: Waters symmetry C18 3.5 μm, 4.6 x 75 mm
Column Temperature: 30 °C
Autosampler temperature: 4 °C
Mobile phase: A: Add 1.0 mL of perchloric acid and 0.75 g of sodium chloride in 1000
mL HPLC grade water; B: Acetonitrile. […]
The test system of series [2] is Trichophyton rubrum ATCC 10218. Nature of the series: Broth microdilution MEC. It counts as cell-based. The following applies: CLSI broth microdilution, microscopy, duplicate. The protocol: (§1) Antifungal potency of the test article(s) was measured using the in vitro broth microdilution assay under test conditions described by the Clinical and Laboratory Standards Institute. Minimum Inhibitory Concentration (MIC) is defined as the lowest concentration of an agent that causes a specified reduction in visible growth of the microorganism. Minimum Effective Concentration (MEC) is defined as the lowest concentration of an agent that leads to the growth of small, rounded, compact hyphal forms, as compared to the hyphal growth typically seen in the growth control well. MIC values were determined for 9 Candida spp., and MEC values were determined for filamentous fungus species (Aspergillus fumigatus and Trichophyton rubrum). Details of the test article preparations and methodologies are described in Supplementary Material S1.
(§2) Following incubation, the test plates were visually examined and wells were scored for growth or complete growth inhibition to define the MIC values. Microscopy examination was used to determine the MEC values. Each test substance was evaluated in duplicate and the results are the duplicate test values. Vehicle-control and an active reference agent were used as blank and positive controls, respectively. […]
(§3) S1. In Vitro Testing, Test Article Preparations
(§4) The 5 mg/mL stock solution was prepared as the following. The refrigerated vial was equilibrated to room temperature. Test vial was reconstituted aseptically with 10.5 mL 0.9% NaCl. The powder was dissolved completely, mixing until a clear solution was ob-tained. The final concentration was 5.0 mg/mL of caspofungin freebase. The reconstituted solution was stable for 1 hr at room temperature. The 5 mg/mL stock solution was then […]
(§5) The refrigerated vial was equilibrated to room temperature. The powder was dis-solved completely, mixing until a clear solution was obtained. Test vial was reconstituted aseptically with 1.8 mL 0.9% NaCl. The white to off-white powder was dissolved com-pletely, mixing gently until a clear solution was obtained. The final concentration was 5.0 mg/mL of caspofungin freebase. The reconstituted solution was used within 1 hr at room temperature. The 5 mg/mL stock solution was then diluted with 0.9% NaCl to prepare the […]
(§6) 1.3. Caspofungin Diacetate
(§7) The 5 mg/mL API stock solution was prepared as the following. The refrigerated vial was equilibrated to room temperature. Test vial was filled aseptically with 1.8 mL 0.9%
(§8) NaCl. The powder was dissolved completely, mixing until a clear solution was obtained.
(§9) The final concentration was 5.0 mg/mL of caspofungin freebase. The reconstituted solu-tion was used within 1 hr at room temperature. The 5 mg/mL stock solution was then […]
(§10) g compound, corresponding to 1.2 mg active compound with a correction factor of 2.40 was added 0.375 mL of water for injection to generate the 3.2 mg/mL working stock solution for testing. The 3.2 mg/mL working stock solution was 2-fold diluted seri-ally in 0.9% NaCl to prepare a total of eleven 50-fold stock solutions, concentrations rang-ing from 3.2 to 0.003 mg/mL. A 4 μL aliquot of each dilution was added to 196 μL of broth medium seeded with the organism suspension in wells of a 96 well plate (fungal cell count: 1 x 10^3 to 1 x 10^4 colony forming units per mL). The final volume was 200 μL in each […]
A general note: Dilution methods test growth across graded concentrations, often in twofold steps.

Series [3] deals with Aspergillus fumigatus ATCC 13073. In words: Broth microdilution MEC. Type of series: cell-based. The following applies: CLSI broth microdilution, microscopy, duplicate. The protocol:
as §1, §2, §3, §4, §5, §6, §7, §8, §9, §10

In series [4] the test system is Aspergillus fumigatus ATCC204305. In words: Broth microdilution MEC. It counts as cell-based. The following applies: CLSI broth microdilution, microscopy, duplicate. Here is the method: as §1, §2, §3, §4, §5, §6, §7, §8, §9, §10
The conditions of series [5]: IV administration, lung tissue; cited from earlier work. The protocol:
(§11) Morphologically Aspergillus grows and propagates within the lung cavity. […] This may explain low human efficacy (40%) of caspofungin in treating IPA. Drug concentr ... || Caspofungin for injection (tradename: […]®) is sold by Merck & Co., Inc. The approved […]® dose is a 70 mg loading dose and then 50 mg/daily. Previous intravenous (IV) studies with caspofungin in animals have shown that IV administered drug only delivers about 5% of the drug level in blood to the lungs. […] Most of the IV drugs is distributed to other sensitive target organs, such as the liver and kidneys, which if given in higher doses, can lead ...

The test system of series [6] is invasive aspergillosis patients. The following applies: cited from earlier work.
Excerpt: as §11, with “Invasive Pulmonary Aspergillosis (IPA) and Pneumocystis jiroveci Pneumonia (PCP) are serious fungal pulmonary diseases for immunocompromised patients. The brand name drug […]® (Caspofungin acetate for injection) is FDA approved to treat IPA, but is only 40% effective. Efficacious drug levels at the lung infection site are not achieved by systemic administration. Increasing the dose leads to toxicity. The objective, here, is to reformulate caspofungin for aerosolization to high drug concentration by lung targeted delivery and avoid systemic distribution. Described in this paper is a new, ... || Morphologically Aspergillus” for “Morphologically Aspergillus”, “lead ... || (+ 1 further places)” for “lead ...”

The test system of a further series is Candida krusei ATCC 6258. Nature of the series: microbe, parasite or virus in culture. It counts as cell-based. The following applies: CLSI broth microdilution, duplicate. Here is the method: as §1, §2, §3, §4, §5, §6, §7, §8, §9, §10
Series [7] relates to Candida albicans ATCC90028. Nature of the series: microbe, parasite or virus in culture. Conditions: CLSI broth microdilution, visual, duplicate. It counts as cell-based. Here is the method:
as §1, §2, §3, §4, §5, §6, §7, §8, §9, §10

The subject of series [8] is Candida albicans ATCC90028 + 50%human serum. In words: microbe, parasite or virus in culture. It counts as cell-based. Conditions: CLSI broth microdilution, duplicate. Here is the method: as §1, §2, §3, §4, §5, §6, §7, §8, §9, §10
Series [9] deals with Candida glabrata ATCC 36583. In words: microbe, parasite or virus in culture. It counts as cell-based. Conditions: CLSI broth microdilution, duplicate. Here is the method: as §1, §2, §3, §4, §5, §6, §7, §8, §9, §10
The test system of series [10] is Candida albicans Azole-R (20186.025). Nature of the series: microbe, parasite or virus in culture. Type of series: cell-based. Conditions: CLSI broth microdilution, azole-resistant strain, duplicate. Here is the method: as §1, §2, §3, §4, §5, §6, §7, §8, §9, §10
The test system of series [11] is Candida albicans ATCC44858. Nature of the series: microbe, parasite or virus in culture. It counts as cell-based. The following applies: CLSI broth microdilution, visual, duplicate. The protocol: as §1, §2, §3, §4, §5, §6, §7, §8, §9, §10
The subject of series [12] is Candida albicans Azole-R (20183.073). Nature of the series: microbe, parasite or virus in culture. Conditions: CLSI broth microdilution, azole-resistant strain, duplicate. It counts as cell-based. Here is the method: as §1, §2, §3, §4, §5, §6, §7, §8, §9, §10
The test system of series [13] is Candida parapsilosis ATCC 22019. Nature of the series: microbe, parasite or virus in culture. Type of series: cell-based. Conditions: CLSI broth microdilution, duplicate. Here is the method: as §1, §2, §3, §4, §5, §6, §7, §8, §9, §10
For series [14], the system named is Candida tropicalis ATCC 200956. In words: microbe, parasite or virus in culture. Conditions: CLSI broth microdilution, duplicate. Type of series: cell-based. Here is the method:
as §1, §2, §3, §4, §5, §6, §7, §8, §9, §10

Consider `CC[C@H](C)C[C@H](C)CCCCCCCCC(=O)N[C@H]1C[C@@H](O)[C@@H](NCCN)NC(=O)[C@@H]2[C@@H](O)CCN2C(=O)[C@H]([C@H](O)CCN)NC(=O)[C@H]([C@H](O)[C@@H](O)c2ccc(O)cc2)NC(=O)[C@@H]2C[C@@H](O)CN2C(=O)[C@H]([C@@H](C)O)NC1=O` [Caspofungin Diacetate], for which the “HPLC Purity %” value in series [1] is on record as 95.42%. For the same compound, the MEC turned out to be 0.125 µg/mL in series [2], 0.0625 µg/mL in [3] and 0.125 µg/mL in series [4]. In addition, the “percentage of IV delivered drug detected in lung” value in series [5] is reported as “about 5%”. In series [6] (IPA patients, high dose group 200 mg/day intravenously), the “response rate (complete or partial response)” value is on record as 60%. Further, the favorable response in series [6] (IPA patients, standard dose group IV) is on record as 44%. Also, in series [6] (high dose group 200 mg/day IV, elevated liver enzymes and liver failure), the “patients presenting with liver toxicity” value is 65%. Besides, the liver enzyme abnormalities result in [6] (standard dose group IV) was “No liver enzyme abnormalities were observed”. For the same compound, the MIC against Candida krusei ATCC 6258 is recorded as 1 µg/mL; in series [7], 0.25 µg/mL; in [8] it was 0.125 µg/mL; in series [9], 0.25 µg/mL; in series [10], 0.25 µg/mL; in series [11] it was 0.25 µg/mL. Moreover, the figures for the MIC in [12], in series [13] and in series [14] were 0.25 µg/mL, 1 µg/mL and 0.25 µg/mL, respectively.
